Measured values: ChEMBL document CHEMBL5584203, “Discovery of sinomenine/8-Bis(benzylthio)octanoic acid hybrids as potential anti-leukemia drug candidate via mitochondrial pathway” (Bioorg Med Chem Lett, 2024)

Experiments:
HepG2 = assay: Antiproliferative activity against human HepG2 cells by CCK8 assay; assay type: functional, cell-based
K562 [1] = assay: Antiproliferative activity against human K562 cells by CCK8 assay; assay type: functional, cell-based
MCF7 = assay: Antiproliferative activity against human MCF7 cells by CCK8 assay; assay type: functional, cell-based
MDA-MB-231 = assay: Antiproliferative activity against human MDA-MB-231 cells by CCK8 assay; assay type: functional, cell-based
A549 = assay: Antiproliferative activity against human A549 cells by CCK8 assay; assay type: functional, cell-based
PANC-1 = assay: Antiproliferative activity against human PANC-1 cells by CCK8 assay; assay type: functional, cell-based
[2] = Cytotoxicity against human PBMCs by CCK8 assay; assay type: toxicity, cell-based, PBMC
K562 [3] = assay: Induction of cell cycle arrest in human K562 cells assessed as G1 phase cells at 1.23 uM by propidium iodide staining based flow cytometry analysis (reference value: 43.16%); assay type: functional
K562 [4] = assay: Induction of cell cycle arrest in human K562 cells assessed as G2 phase cells at 1.23 uM by propidium iodide staining based flow cytometry analysis (reference value: 12.80%); assay type: functional
K562 [5] = assay: Induction of cell cycle arrest in human K562 cells assessed as S phase cells at 1.23 uM by propidium iodide staining based flow cytometry analysis (reference value: 44.03%); assay type: functional
K562 [6] = assay: Induction of cell cycle arrest in human K562 cells assessed as G1 phase cells at 2.45 uM by propidium iodide staining based flow cytometry analysis (reference value: 43.16%); assay type: functional
K562 [7] = assay: Induction of cell cycle arrest in human K562 cells assessed as G2 phase cells at 2.45 uM by propidium iodide staining based flow cytometry analysis (reference value: 12.80%); assay type: functional
K562 [8] = assay: Induction of cell cycle arrest in human K562 cells assessed as S phase cells at 2.45 uM by propidium iodide staining based flow cytometry analysis (reference value: 44.03%); assay type: functional
K562 [9] = assay: Induction of cell cycle arrest in human K562 cells assessed as G1 phase cells at 4.90 uM by propidium iodide staining based flow cytometry analysis (reference value: 43.16%); assay type: functional; conditions: dose 4.9 µM
K562 [10] = assay: Induction of cell cycle arrest in human K562 cells assessed as G2 phase cells at 4.90 uM by propidium iodide staining based flow cytometry analysis (reference value: 12.80%); assay type: functional; conditions: dose 4.9 µM
K562 [11] = assay: Induction of cell cycle arrest in human K562 cells assessed as S phase cells at 4.90 uM by propidium iodide staining based flow cytometry analysis (reference value: 44.03%); assay type: functional; conditions: dose 4.9 µM
K562 [12] = assay: Induction of apoptosis in human K562 cells assessed as early apoptotic cells at 1.23 uM by Annexin V-FITC and PI staining based flow cytometry analysis (reference value: 3.31%); assay type: functional
K562 [13] = assay: Induction of apoptosis in human K562 cells assessed as late apoptotic cells at 1.23 uM by Annexin V-FITC and PI staining based flow cytometry analysis (reference value: 3.04%); assay type: functional
K562 [14] = assay: Induction of apoptosis in human K562 cells assessed as early apoptotic cells at 2.45 uM by Annexin V-FITC and PI staining based flow cytometry analysis (reference value: 3.31%); assay type: functional
K562 [15] = assay: Induction of apoptosis in human K562 cells assessed as late apoptotic cells at 2.45 uM by Annexin V-FITC and PI staining based flow cytometry analysis (reference value: 3.04%); assay type: functional
K562 [16] = assay: Induction of apoptosis in human K562 cells assessed as early apoptotic cells at 4.90 uM by Annexin V-FITC and PI staining based flow cytometry analysis (reference value: 3.31%); assay type: functional; conditions: dose 4.9 µM
K562 [17] = assay: Induction of apoptosis in human K562 cells assessed as late apoptotic cells at 4.90 uM by Annexin V-FITC and PI staining based flow cytometry analysis (reference value: 3.04%); assay type: functional; conditions: dose 4.9 µM
Cell membrane [18] = assay: Induction of mitochondrial membrane potential loss in human K562 cells assessed as increase in apoptotic cells at 1.23 uM by JC-1 staining based flow cytometry analysis (reference value: 5.70); assay type: cell membranes
Cell membrane [19] = assay: Induction of mitochondrial membrane potential loss in human K562 cells assessed as increase in apoptotic cells at 2.45 uM by JC-1 staining based flow cytometry analysis (reference value: 5.70); assay type: cell membranes
Cell membrane [20] = assay: Induction of mitochondrial membrane potential loss in human K562 cells assessed as increase in apoptotic cells at 4.90 uM by JC-1 staining based flow cytometry analysis (reference value: 5.70); assay type: cell membranes; conditions: dose 4.9 µM
K562 [21] = assay: Induction of apoptosis in human K562 cells assessed as chromatin condensation incubated for 48 hrs by Hoechst 33,258 staining based fluorescence microscopy analysis; assay type: functional, cell-based; conditions: dose 1.23-4.9 µM
K562 [22] = assay: Induction of apoptosis in human K562 cells assessed as cell membrane rupture incubated for 48 hrs by Hoechst 33,258 staining based fluorescence microscopy analysis; assay type: functional; conditions: dose 1.23-4.9 µM

## COC1=CC2[C@@H]3Cc4ccc(OC)c(OCCCCCOC(=O)CCCCC(CCSCc5ccccc5)SCc5ccccc5)c4[C@]2(CCN3C)CC1=O (some centres not stated)
HepG2
  IC50: 15.6 µM
K562 [1]
  IC50: 2.45 µM
MCF7
  IC50: 45.4 µM
MDA-MB-231
  IC50: > 50 µM
A549
  IC50: 23.9 µM
PANC-1
  IC50: > 50 µM
[2]
  IC50: > 50 µM
K562 [3]
  Activity: 47.39%
K562 [4]
  Activity: 10.69%
K562 [5]
  Activity: 41.92%
K562 [6]
  Activity: 54.84%
K562 [7]
  Activity: 3.47%
K562 [8]
  Activity: 38.69%
K562 [9]
  Activity: 60.57%
K562 [10]
  Activity: 6.48%
K562 [11]
  Activity: 32.95%
K562 [12]
  Activity: 9.83%
K562 [13]
  Activity: 3.53%
K562 [14]
  Activity: 24.33%
K562 [15]
  Activity: 13.66%
K562 [16]
  Activity: 25.04%
K562 [17]
  Activity: 39.9%
Cell membrane [18]
  Activity: 26.4%
Cell membrane [19]
  Activity: 41.1%
Cell membrane [20]
  Activity: 59.1%
K562 [21]
  Activity: Dose-Dependent Effect
K562 [22]
  Activity: Dose-Dependent Effect
